# Reference: paper PMC4979471 (Cell Death Discovery, 2015)
# Read-outs that look alike come from different tables or passages of the source.
# How the values were obtained:
# Assay in all cases: Kinase selectivity, P33-radiolabeled assay
# Assay type in all cases: biochemical
# Conditions in all cases: 10 μM ATP
# RSK3 = molecular target: T1, RSK3 (Homo sapiens, UniProt Q15349)
# T1 construct: purchased Reaction Biology Corp
# Method in brief: (§1)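 ATP at 10 μM; test article at 10 μM, single point, two replicates. Output is activity as % of DMSO.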
# LATS1 = molecular target: T2, LATS1 (Homo sapiens, UniProt O95835)
# T2 construct: purchased Reaction Biology Corp
# T2 sequence (O95835 1-1130): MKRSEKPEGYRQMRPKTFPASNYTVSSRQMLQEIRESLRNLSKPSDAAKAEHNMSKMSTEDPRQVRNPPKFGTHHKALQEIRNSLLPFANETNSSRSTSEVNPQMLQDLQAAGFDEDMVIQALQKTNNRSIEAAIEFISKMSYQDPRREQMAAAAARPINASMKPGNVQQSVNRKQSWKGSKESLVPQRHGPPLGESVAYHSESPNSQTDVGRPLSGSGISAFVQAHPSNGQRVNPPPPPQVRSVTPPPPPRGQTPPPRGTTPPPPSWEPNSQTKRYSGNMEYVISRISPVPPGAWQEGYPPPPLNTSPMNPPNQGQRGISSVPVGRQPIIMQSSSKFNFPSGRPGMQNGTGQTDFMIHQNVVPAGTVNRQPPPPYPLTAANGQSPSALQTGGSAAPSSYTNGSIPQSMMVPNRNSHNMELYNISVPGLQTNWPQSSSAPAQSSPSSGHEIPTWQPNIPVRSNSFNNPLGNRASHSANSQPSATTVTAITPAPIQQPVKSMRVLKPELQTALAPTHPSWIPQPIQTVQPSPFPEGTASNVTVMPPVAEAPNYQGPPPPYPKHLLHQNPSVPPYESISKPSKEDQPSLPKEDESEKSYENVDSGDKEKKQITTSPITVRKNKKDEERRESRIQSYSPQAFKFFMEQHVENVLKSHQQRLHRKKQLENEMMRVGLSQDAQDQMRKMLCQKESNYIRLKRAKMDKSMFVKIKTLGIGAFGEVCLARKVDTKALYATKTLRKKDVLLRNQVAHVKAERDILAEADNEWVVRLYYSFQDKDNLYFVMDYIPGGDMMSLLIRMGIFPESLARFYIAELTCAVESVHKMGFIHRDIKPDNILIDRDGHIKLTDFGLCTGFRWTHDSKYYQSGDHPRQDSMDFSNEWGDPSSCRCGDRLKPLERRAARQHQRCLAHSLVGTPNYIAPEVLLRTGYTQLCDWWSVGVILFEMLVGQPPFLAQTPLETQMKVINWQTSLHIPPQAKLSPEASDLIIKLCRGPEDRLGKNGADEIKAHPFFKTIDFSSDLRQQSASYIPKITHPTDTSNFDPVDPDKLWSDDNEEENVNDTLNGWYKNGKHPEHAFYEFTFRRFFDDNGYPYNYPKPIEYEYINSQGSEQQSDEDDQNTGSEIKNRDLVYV
# Method in brief: as §1
# CK1g3 = molecular target: T3, CK1g3 (Homo sapiens, UniProt Q9Y6M4)
# T3 construct: purchased Reaction Biology Corp
# T3 sequence (Q9Y6M4 whole entry): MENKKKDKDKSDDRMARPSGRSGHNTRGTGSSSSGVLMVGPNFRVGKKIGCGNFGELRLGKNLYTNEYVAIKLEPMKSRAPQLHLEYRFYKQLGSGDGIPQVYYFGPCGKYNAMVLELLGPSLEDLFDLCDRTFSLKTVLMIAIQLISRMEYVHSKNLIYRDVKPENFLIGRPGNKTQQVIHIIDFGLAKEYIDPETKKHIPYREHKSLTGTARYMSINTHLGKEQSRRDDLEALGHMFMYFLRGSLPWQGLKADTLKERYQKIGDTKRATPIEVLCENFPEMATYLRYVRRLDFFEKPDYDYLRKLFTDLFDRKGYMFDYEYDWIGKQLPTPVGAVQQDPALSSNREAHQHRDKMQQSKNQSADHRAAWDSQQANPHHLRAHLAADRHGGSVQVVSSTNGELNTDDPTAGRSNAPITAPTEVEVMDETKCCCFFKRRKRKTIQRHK
# Method in brief: as §1
# TGFBR2 = molecular target: T4, TGFBR2 (Homo sapiens, UniProt P37173)
# T4 construct: purchased Reaction Biology Corp
# T4 sequence (P37173 23-567): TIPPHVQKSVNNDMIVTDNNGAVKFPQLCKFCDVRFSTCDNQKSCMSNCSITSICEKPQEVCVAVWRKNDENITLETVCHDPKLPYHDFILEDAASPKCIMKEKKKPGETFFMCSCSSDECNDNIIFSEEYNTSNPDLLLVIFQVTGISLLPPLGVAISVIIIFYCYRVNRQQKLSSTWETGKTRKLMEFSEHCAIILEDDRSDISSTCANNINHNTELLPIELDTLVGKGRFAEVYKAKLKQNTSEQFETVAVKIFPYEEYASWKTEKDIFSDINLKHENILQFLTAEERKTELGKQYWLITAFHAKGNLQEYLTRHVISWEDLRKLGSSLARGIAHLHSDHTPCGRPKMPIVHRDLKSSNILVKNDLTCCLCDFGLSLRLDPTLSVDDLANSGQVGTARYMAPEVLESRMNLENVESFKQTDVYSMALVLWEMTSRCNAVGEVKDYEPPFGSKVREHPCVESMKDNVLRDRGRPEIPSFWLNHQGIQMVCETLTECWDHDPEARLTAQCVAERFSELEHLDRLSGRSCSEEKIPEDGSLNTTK
# Method in brief: as §1
# CAMK2a = molecular target: T5, CAMK2a (Homo sapiens, UniProt Q9UQM7)
# T5 construct: purchased Reaction Biology Corp
# T5 sequence (Q9UQM7 whole entry): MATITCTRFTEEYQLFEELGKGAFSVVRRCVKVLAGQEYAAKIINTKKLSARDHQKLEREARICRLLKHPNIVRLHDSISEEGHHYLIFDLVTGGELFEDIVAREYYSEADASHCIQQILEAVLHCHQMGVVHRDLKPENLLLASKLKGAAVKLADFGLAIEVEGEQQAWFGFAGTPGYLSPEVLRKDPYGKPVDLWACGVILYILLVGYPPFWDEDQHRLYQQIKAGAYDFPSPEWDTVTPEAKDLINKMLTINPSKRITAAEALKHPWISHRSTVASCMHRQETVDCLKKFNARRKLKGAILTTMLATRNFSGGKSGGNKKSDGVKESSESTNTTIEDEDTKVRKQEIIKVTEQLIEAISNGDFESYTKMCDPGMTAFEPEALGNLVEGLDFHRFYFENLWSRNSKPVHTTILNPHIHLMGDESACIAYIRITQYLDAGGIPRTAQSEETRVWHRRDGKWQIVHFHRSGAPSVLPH
# Method in brief: as §1
# MEKK1 = molecular target: T6, MEKK1 (Homo sapiens, UniProt Q13233)
# T6 construct: purchased Reaction Biology Corp
# T6 sequence (Q13233 whole entry): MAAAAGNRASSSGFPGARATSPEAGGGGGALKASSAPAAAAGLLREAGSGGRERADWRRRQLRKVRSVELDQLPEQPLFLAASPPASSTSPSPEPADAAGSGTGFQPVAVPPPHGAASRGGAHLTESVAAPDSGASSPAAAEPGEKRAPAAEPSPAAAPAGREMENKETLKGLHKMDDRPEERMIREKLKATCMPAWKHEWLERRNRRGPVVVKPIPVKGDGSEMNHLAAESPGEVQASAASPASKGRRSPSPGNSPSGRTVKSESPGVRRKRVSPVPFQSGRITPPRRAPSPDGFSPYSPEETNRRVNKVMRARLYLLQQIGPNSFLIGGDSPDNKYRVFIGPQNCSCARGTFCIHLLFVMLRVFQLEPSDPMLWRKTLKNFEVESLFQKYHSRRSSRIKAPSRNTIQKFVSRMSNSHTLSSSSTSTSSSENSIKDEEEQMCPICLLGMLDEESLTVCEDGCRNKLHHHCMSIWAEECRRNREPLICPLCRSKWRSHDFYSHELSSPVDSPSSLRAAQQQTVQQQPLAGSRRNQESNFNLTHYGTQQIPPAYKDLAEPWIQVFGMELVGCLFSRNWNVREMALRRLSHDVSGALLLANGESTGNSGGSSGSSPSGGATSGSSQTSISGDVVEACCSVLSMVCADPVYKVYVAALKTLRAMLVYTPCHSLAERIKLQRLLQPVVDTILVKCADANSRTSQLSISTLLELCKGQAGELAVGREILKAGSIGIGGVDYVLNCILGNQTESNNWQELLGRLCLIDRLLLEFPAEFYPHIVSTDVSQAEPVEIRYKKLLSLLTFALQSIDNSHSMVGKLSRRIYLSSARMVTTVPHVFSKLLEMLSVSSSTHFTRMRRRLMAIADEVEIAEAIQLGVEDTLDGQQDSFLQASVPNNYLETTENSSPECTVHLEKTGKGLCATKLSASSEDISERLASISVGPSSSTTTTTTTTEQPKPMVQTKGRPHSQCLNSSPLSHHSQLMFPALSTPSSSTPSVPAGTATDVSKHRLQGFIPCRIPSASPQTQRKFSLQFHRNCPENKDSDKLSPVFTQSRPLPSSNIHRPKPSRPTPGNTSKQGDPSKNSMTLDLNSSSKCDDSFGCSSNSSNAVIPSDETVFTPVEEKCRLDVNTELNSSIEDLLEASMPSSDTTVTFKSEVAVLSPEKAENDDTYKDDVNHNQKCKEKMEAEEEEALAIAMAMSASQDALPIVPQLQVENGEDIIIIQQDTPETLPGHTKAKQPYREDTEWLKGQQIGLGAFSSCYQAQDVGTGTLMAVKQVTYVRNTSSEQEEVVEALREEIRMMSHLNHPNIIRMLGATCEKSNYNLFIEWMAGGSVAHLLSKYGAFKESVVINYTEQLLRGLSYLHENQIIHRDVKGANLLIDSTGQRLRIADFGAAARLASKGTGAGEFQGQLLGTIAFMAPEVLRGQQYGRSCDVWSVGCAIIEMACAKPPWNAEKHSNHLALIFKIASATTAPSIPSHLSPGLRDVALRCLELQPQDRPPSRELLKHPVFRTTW
# Method in brief: as §1
# ALK1/ACVRL1 = molecular target: T7, ALK1/ACVRL1 (Homo sapiens, UniProt P37023)
# T7 construct: purchased Reaction Biology Corp
# T7 sequence (P37023 22-503): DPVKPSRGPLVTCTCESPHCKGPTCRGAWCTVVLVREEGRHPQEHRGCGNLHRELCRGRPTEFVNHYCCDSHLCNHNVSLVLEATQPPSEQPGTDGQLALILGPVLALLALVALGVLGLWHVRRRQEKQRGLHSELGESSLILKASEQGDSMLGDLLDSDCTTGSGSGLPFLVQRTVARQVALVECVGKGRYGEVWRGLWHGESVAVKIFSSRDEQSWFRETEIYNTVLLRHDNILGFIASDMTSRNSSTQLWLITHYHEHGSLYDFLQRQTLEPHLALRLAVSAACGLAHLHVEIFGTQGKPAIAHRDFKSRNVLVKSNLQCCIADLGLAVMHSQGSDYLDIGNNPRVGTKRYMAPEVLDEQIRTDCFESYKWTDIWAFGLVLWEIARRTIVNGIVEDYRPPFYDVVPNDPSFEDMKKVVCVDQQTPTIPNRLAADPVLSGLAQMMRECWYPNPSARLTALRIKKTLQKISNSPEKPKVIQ
# Method in brief: as §1
# c-Src = molecular target: T8, c-Src (Homo sapiens, UniProt P12931)
# T8 construct: purchased Reaction Biology Corp
# T8 sequence (P12931 whole entry): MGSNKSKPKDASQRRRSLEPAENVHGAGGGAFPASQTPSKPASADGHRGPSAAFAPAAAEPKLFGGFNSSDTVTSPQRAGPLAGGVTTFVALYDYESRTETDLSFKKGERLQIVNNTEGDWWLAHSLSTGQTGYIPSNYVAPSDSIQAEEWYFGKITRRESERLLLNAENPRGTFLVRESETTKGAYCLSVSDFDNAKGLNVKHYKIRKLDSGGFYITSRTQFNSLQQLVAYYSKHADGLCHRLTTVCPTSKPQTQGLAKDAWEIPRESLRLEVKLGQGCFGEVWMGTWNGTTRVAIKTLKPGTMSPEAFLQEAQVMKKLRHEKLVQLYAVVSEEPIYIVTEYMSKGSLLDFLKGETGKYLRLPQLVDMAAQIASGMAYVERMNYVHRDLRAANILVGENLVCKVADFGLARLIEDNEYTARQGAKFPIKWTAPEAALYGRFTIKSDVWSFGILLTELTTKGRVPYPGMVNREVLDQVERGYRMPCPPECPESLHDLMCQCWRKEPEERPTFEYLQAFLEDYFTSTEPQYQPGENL
# Method in brief: as §1
# TBK1 = molecular target: T9, TBK1 (Homo sapiens, UniProt Q9UHD2)
# T9 construct: purchased Reaction Biology Corp
# T9 sequence (Q9UHD2 1-729): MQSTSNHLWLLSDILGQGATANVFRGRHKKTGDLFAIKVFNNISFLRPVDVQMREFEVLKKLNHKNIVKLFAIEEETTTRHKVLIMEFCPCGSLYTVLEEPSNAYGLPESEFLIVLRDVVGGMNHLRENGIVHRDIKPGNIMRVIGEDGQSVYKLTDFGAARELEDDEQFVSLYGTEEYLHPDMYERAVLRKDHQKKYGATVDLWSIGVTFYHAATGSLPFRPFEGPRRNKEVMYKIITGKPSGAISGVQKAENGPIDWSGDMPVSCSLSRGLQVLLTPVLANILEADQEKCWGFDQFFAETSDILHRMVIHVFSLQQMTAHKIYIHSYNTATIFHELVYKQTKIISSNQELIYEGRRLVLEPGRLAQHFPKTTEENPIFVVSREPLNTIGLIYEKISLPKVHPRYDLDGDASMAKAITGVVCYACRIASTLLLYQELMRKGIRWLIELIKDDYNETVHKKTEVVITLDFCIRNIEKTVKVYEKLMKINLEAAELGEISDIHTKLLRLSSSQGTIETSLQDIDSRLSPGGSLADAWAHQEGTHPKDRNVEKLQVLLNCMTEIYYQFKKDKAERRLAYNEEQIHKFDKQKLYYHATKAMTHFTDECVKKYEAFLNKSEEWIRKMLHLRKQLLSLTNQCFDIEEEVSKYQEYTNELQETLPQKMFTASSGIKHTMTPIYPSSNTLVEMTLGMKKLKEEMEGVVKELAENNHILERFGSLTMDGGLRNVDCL
# Method in brief: as §1
# [1] = read-out: % Enzyme Activity (relative to DMSO controls) AVG
# [2] = read-out: % Enzyme Activity (relative to DMSO controls) Data 1
# [3] = read-out: % Enzyme Activity (relative to DMSO controls) Data 2
# T1 sequence (Q15349 whole entry): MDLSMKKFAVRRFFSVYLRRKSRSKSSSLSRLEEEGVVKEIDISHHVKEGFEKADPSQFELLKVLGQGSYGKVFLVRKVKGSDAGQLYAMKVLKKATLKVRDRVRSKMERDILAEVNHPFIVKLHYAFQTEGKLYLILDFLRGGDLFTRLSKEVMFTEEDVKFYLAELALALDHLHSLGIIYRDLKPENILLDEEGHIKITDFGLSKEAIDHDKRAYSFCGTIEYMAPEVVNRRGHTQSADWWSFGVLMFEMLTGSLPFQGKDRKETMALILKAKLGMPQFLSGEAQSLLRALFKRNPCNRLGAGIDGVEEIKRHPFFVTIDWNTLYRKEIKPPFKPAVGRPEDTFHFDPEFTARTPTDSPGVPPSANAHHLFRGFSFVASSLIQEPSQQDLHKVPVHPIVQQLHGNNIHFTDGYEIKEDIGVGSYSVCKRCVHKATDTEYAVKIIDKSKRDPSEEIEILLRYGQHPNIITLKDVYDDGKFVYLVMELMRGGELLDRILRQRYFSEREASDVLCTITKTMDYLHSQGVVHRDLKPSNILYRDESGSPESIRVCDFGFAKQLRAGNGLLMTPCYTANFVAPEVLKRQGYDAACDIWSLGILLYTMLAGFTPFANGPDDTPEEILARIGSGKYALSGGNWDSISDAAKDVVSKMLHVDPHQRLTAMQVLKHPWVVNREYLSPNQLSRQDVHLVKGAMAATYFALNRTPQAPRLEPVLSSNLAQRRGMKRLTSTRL
smiles,measurement,setting,value
CC(C)(C)C(=O)N1N=CC[C@H]1c1ccccc1 [GSK′963],remaining activity at 10 µM,RSK3; [1],101%
same,remaining activity at 10 µM,RSK3; [2],102%
same,remaining activity at 10 µM,RSK3; [3],99.6%
same,remaining activity at 10 µM,LATS1; [1],103%
same,remaining activity at 10 µM,LATS1; [2],103%
same,remaining activity at 10 µM,LATS1; [3],102%
same,remaining activity at 10 µM,CK1g3; [1],98.4%
same,remaining activity at 10 µM,CK1g3; [2],97.8%
same,remaining activity at 10 µM,CK1g3; [3],99%
same,remaining activity at 10 µM,TGFBR2; [1],116%
same,remaining activity at 10 µM,TGFBR2; [2],119%
same,remaining activity at 10 µM,TGFBR2; [3],114%
same,remaining activity at 10 µM,CAMK2a; [1],102%
same,remaining activity at 10 µM,CAMK2a; [2],101%
same,remaining activity at 10 µM,CAMK2a; [3],102%
same,remaining activity at 10 µM,MEKK1; [1],97.3%
same,remaining activity at 10 µM,MEKK1; [2],101%
same,remaining activity at 10 µM,MEKK1; [3],94%
same,remaining activity at 10 µM,ALK1/ACVRL1; [1],97.7%
same,remaining activity at 10 µM,ALK1/ACVRL1; [2],104%
same,remaining activity at 10 µM,ALK1/ACVRL1; [3],91.2%
same,remaining activity at 10 µM,c-Src; [1],109%
same,remaining activity at 10 µM,c-Src; [2],112%
same,remaining activity at 10 µM,c-Src; [3],106%
same,remaining activity at 10 µM,TBK1; [1],86%
same,remaining activity at 10 µM,TBK1; [2],86.8%
same,remaining activity at 10 µM,TBK1; [3],85.3%
